Consider three molecules from patent US8246966B2, “Trypanosome microsome system and uses thereof” (priority 2006, dated 2012).

Entries after “also recorded” stand apart in the source; their conditions may differ. Like-named read-outs stand apart in the source and are kept apart here.

Data set [1] has as its system HeLa cells. The data set can be described thus: HeLa cell viability, propidium iodide exclusion assay. It is filed as cell-based, human. As for the experimental part:
HeLa cells, treated with DMSO, MAL3-101, MAL3-51, CJ-21,058 or equisetin, were subject to a propidium iodide viability assay and analyzed by flow cytometry.
HeLa cell line was maintained in RPMI-1640 supplemented with 10% bovine serum, 100 U/ml penicillin/streptomycin, and 2 mM L-glutamine at 37° C. in 5% CO2.
HeLa cell viability assays. Propidium iodide exclusion assay (reviewed in Steff et al., 2001, Cytometry; 45(4):237-43 and Wigg et al., 2003, Anal Biochem; 317(1):19-25) was used to determine HeLa cell viability after drug treatment. Cells were plated at 1×10^4 cells per well (96 well plate) with or without addition of test compounds for the stated time periods, as described for FIGS. 1-4. […] Adherent cells were rinsed with phosphate buffered saline (PBS), trypsinized (37° C. for 5 minutes), pelleted (2,000 g, 2 minutes), resuspended in PBS (500 μl) containing propidium iodide (1 μg/ml), DAPI [4′-6-Diamidino-2-phenylindole] (5 μg/ml) and analyzed by flow cytometry on a Dakocytomation CyAn without gating. Single fluorophore controls were acquired prior to the collection of the experimental data.

The subject of data set [2] is T. brucei microsomes (TbRM). Kind of data set: Import of full length VSG—117 into TbRM with T. brucei cytosol (Example 10). In kind it is biochemical, Trypanosoma brucei. The method, then: FIGS. 18A and 18B. MAL3-101, equisetin, and CJ-21,058 inhibit VSG translocation into TbRM. FIG. 18A presents the protocol used for import of VSG—117. In FIG. 18B, VSG—117 mRNA was translated in rabbit reticulocyte lysate with 1.5 equivalents T. brucei cytosol pretreated with MAL3-101 (3 μM), MAL3-51 (10 μM), CJ-21,058 (20 μM) or equisetin (50 μM)) for 60 minutes. The reaction mixtures received cycloheximide (50 μg/ml, final concentration) and were incubated with TbRM (one equivalent). After incubation at 37° C. for 60 minutes, reaction mixtures were transferred to an ice-water bath and treated with proteinase K (30 μg/ml, final concentration) for 60 minutes. Proteins were resolved by SDS-PAGE and detected by phosphorimaging. Lane 1 is VSG—117 incubated with TbRM; lane 2 is VSG—117 digested with proteinase K after incubation with TbRM; lane 3 is VSG—117 incubated with MAL3-101 in the presence of TbRM; lane 4 is VSG—117 and TbRM incubated with MAL3-101 and then digested with proteinase K; lane 5 is VSG—117 incubated with MAL3-51 and TbRM; lane 6 is VSG—117 incubated with TbRM in the presence of equisetin; lane 7 is VSG—117 incubated with ThRM; lane 8 is VSG—117 incubated with equisetin and digested with proteinase K; lane 9 is VSG—117 incubated with CJ-21,058 and TbRM; lane 10 is VSG—117 incubated with TbRM and CJ-21,058 and digested with proteinase K. For quantitation, each proteasedigested sample was compared to a control experiment containing the drug but without protease addition. Thus, lane 2 is compared with lane 1 while lane 4 is compared to lane 3, and so on.
Protein Import Into TbRM. Two μg of RNA encoding VSG—117 (or VSG_MVAT7) was translated in 30 μl of a reaction mixture containing 15 μl rabbit reticulocyte lysate, 60 μM amino acid mixture (-Met, -Cys), and 2.4 μCi [^35S]Promix. […] The gels were dried, and radioactive polypeptides were detected with a phosphorimager (Personal Molecular Imager FX, (BioRad). Data were quantified with QuantityOne software (BioRad), and graphs were plotted with DeltaGraph (Red Rock software). […]

Data set [3] deals with Blood stream form T. brucei CA427. Kind of data set: Trypanocidal activity against cultured blood stream form T. brucei (Example 2). It is filed as cell-based, Trypanosoma brucei. Conditions: for IC50: read-out: concentration at which fifty percent of parasites were killed (IC50). The method, then:
Blood stream form T. brucei CA427 were grown in HMI-9 media to the cell density of 10^6. The cells were then transferred to 96 well plates with the addition of different concentrations of MAL3-101, MAL3-51, CJ-21,058 or equisetin. In controls, DMSO was added. Cell density was calculated at the end of 24 hours, and the graph was plotted.
Cell culture. Blood stream form T. brucei CA427 was cultured in HMI-9 medium (Hirumi and Hirumi, 1994, Parasitol Today; 10:80-84) to a maximum density of 10^6/ml. For use in drug sensitivity studies, cells were seeded at […], and one hundred microliters added to each well of a 96-well plate, with or without test compounds at stated concentrations, as discussed in Brief Descriptions of FIGS. 1-4. In controls, DMSO, the solvent for the compounds, was added. Cells were counted after 24 or 48 hours, using a hemocytometer, and the data graphed. All experiments were performed in triplicates.

For `C/C=C/C1C(C)=CC2CC(C)CCC2C1(C)/C(O)=C1/C(=O)C(CO)N(C)C1=O` (centres unmarked) [CJ-21,058], the “effect on human HeLa cells” value in data set [1] is on record as “little effect”. The “inhibition of import of VSG—117 into TbRM compared to DMSO control” value in data set [2] (CJ-21,058 (20 μM in FIG. 18B legend)) amounted to 70%. For the same molecule, in data set [3] (cultured T. brucei), the IC50 was found to be 7 µM.

Turning to `CCCCCCN(C(=O)CCCCCN1C(=O)NC(c2ccc(-c3ccccc3)cc2)C(C(=O)OCc2ccccc2)=C1C)C(C(=O)NCCCC)c1ccc(OCC(=O)OC)c(C(=O)OC)c1` (centres unmarked) [MAL3-101], in data set [2] (MAL3-101 present (3 μM in FIG. 18B legend), DMSO approximately 80%), the “VSG—117 protected from proteinase K” value amounted to 13%. Besides, the “trypanocidal activity (in words)” value in data set [3] is “killed T. brucei at sub-micromolar level”. In data set [3] (cultured T. brucei), the “concentration at which one hundred percent of parasites were killed (IC100)” value is on record as 500 nM and the IC50 was found to be 0.125 µM.

`C/C=C/[C@@H]1C=C[C@@H]2C[C@H](C)CC[C@H]2[C@]1(C)/C(O)=C1/C(=O)[C@H](CO)N(C)C1=O` [equisetin]: the “effect on human HeLa cells” value in data set [1] (concentrations that killed one hundred percent T. brucei (IC100)) was “little effect; also recorded: did not have discernible effects”. The HeLa cell viability result in data set [1] (equisetin 26 μM) is “neither CJ-21,058 (20 μM) nor equisetin (26 μM) decreased viability of HeLa cells”. For the same molecule, the “inhibition of VSG—117 translocation into TbRM” value in data set [2] (equisetin (50 μM in FIG. 18B legend)) came to 95%. Moreover, the IC50 in data set [3] (cultured T. brucei) is 3.3 µM.
